Among the data in ChEMBL document CHEMBL1140625 (Bioorg Med Chem, 2007) are IC50 values, retold here.

The target of the assay is Human immunodeficiency virus type 1 integrase (Human immunodeficiency virus 1, UniProt Q7ZJM1). Nature of the assay: Inhibition of HIV1 integrase.

What is called IC50 is the concentration at which inhibition is half-maximal. High values mean weaker potency, low ones greater potency.

Sequence of Human immunodeficiency virus type 1 integrase (Q7ZJM1 whole entry): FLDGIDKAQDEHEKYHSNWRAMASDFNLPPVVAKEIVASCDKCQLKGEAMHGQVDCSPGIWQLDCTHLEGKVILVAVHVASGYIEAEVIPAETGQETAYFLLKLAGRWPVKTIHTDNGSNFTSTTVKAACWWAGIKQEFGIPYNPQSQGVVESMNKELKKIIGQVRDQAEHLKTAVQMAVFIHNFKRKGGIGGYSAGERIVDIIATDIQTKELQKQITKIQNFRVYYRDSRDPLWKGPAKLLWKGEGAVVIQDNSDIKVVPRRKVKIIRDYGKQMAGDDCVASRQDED

As for `O=C(/C=C(\O)c1nc[nH]n1)c1ccc(Cc2ccc(F)cc2)[nH]1`, the IC50 was less than 1000 nM.

`O=C(/C=C(\O)c1cc[nH]c1)c1ccc(Cc2ccc(F)cc2)o1` had a half-maximal inhibitory concentration (IC50) of less than 1000 nM.
